Data: ChEMBL document CHEMBL2417489, “A structure-activity relationship study of 1,2,4-triazolo[1,5-a][1,3,5]triazin-5,7-dione and its 5-thioxo analogues on anti-thymidine phosphorylase and associated anti-angiogenic activities” (Eur J Med Chem, 2013)
Activity calls are given as the source filed them. No cut-off for these calls is given here.

Key:
[1] = target: T1, Thymidine phosphorylase (Homo sapiens, UniProt P19971); experiment: Inhibition of human recombinant thymidine phosphorylase expressed in Escherichia coli using thymidine as substrate after 4 to 20 mins by spectrophotometry
T1 sequence (P19971 whole entry): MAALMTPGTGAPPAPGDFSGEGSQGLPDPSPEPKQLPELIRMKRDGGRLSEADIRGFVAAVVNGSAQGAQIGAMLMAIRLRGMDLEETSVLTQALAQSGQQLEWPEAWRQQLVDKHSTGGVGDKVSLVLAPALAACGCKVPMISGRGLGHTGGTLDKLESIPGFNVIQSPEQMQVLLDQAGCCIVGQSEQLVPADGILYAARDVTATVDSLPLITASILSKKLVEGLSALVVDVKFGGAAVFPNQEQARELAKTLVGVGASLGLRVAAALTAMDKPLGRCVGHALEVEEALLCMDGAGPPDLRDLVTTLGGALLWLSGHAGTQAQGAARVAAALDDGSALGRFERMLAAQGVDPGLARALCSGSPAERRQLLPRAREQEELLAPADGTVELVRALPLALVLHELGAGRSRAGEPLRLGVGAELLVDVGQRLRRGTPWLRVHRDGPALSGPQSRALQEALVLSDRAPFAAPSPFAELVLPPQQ

[2] = test system: MDA-MB-231; conditions: Homo sapiens, 25 to 200 uM
Description: Antiangiogenic activity in human MDA-MB-231 cells assessed as inhibition of VEGF protein expression at 25 to 200 uM after 24 hrs by ELISA relative to vehicle-treated control

[3] = test system: MDA-MB-231; conditions: Homo sapiens, 50 to 100 uM
Description: Antiangiogenic activity in human MDA-MB-231 cells assessed as inhibition of PMA-induced MMP-9 expression at 50 to 100 uM after 24 hrs by densitometric analysis relative to vehicle-treated control

[4] = test system: MDA-MB-231; conditions: Homo sapiens, 200 uM
Description: Antiangiogenic activity in human MDA-MB-231 cells assessed as inhibition of PMA-induced MMP-9 expression at 200 uM after 24 hrs by gelatine zymography relative to vehicle-treated control

[5] = test system: MDA-MB-231; conditions: Homo sapiens, 100 to 200 uM
Description: Antiangiogenic activity in human MDA-MB-231 cells assessed as inhibition of PMA-induced MMP-9 expression at 100 to 200 uM after 24 hrs by densitometric analysis relative to vehicle-treated control

Row | IC50 [1] | Structure (SMILES) | inhibition [2] | inhibition [3] | inhibition [4] | inhibition [5]
1 | > 100 µM | O=c1[nH]c(=O)n2nc(-c3ccccc3)nc2[nH]1 | – | – | – | –
2 | – | O=c1[nH]c(=S)[nH]c2nc(Cc3ccc(Cl)c(Cl)c3)nn12 | Active | inactive | Active | –
3 | – | O=c1[nH]c(=S)[nH]c2nc(-c3ccc(Cl)c(Cl)c3)nn12 | Active | – | Active | Active
4 | – | Cc1cc(-c2nc3[nH]c(=S)[nH]c(=O)n3n2)ccc1Br | Active | – | Active | Active
5 | > 100 µM | O=c1[nH]c(=O)n2nc(Cc3ccccc3)nc2[nH]1 | – | – | – | –
